Reference: patent publication US20250353891A1 (MEDIMMUNE LIMITED, priority 2022, published 2025)
pEC50: −log10 of the molar value. Starred links: 1 amine or outer side, 2 acyl side, 3 side chain; linkers in the order of their positions; H or OH if unused. Non-standard residues stand in square brackets, D forms with d. Residues, ends and D or L forms follow the SMILES beside them. Groups on a side chain read outwards from the residue. *: point of attachment. C20 diacid = O=C(O)CCCCCCCCCCCCCCCCCCC(=O)*; C18 diacid = O=C(O)CCCCCCCCCCCCCCCCC(=O)*; γGlu = O=C(O)[C@H](CCC(=O)[*:2])N[*:1]; αMeF = C[C@](N)(Cc1ccccc1)C(=O)O; AEEA = NCCOCCOCC(=O)O; Aib = CC(C)(N)C(=O)O

Columns and labels:
[1] = biological target: human GLP-1 receptor (hGLP-1R) (Homo sapiens, UniProt P43220); test: cAMP production (HTRF) in CHO cells expressing hGLP-1R; format: cell-based; set-up: expressed in transfected cells; conditions: for pEC50: Table 6, peptides modified at position 17, cAMP in CHO hGLP-1R cells, geometric mean, read-out: hGLP-1R EC50; for % Relative Potency Ratio: Table 6, % GLP-1R activity relative to GLP-1 / % GlucR activity relative to glucagon
Chain of human GLP-1 receptor (hGLP-1R) (P43220 24-463): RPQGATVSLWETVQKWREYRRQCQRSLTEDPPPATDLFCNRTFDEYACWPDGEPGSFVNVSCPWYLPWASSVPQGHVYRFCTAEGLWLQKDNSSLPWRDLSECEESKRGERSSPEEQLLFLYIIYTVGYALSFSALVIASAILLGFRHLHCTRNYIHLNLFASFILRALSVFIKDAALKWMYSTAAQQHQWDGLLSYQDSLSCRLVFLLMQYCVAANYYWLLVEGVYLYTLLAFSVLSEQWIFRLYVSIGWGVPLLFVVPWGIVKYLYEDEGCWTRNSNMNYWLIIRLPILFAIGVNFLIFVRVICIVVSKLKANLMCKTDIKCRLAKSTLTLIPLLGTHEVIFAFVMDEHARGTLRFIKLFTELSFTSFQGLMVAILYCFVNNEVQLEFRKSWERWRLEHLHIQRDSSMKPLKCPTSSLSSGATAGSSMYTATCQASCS
Summary of the method: (§1)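 Cells were resuspended in assay buffer at batch-optimized density, typically 1×10^5 cells/mL for hGLP-1R and 2×10^5 cells/mL for hGCGR. After 30 min incubation at room temperature with compound, cAMP was measured by two-step HTRF. EC50 values came from 4-parameter logistic fits of % Delta F.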

[2] = biological target: human glucagon receptor (hGCGR) (Homo sapiens, UniProt P47871); test: cAMP production (HTRF) in CHO cells expressing hGCGR; format: cell-based; set-up: expressed in transfected cells; conditions: Table 6, peptides modified at position 17; cAMP in CHO hGCGR cells; geometric mean; read-out: hGluc-R EC50
Chain of human glucagon receptor (hGCGR) (P47871 26-477): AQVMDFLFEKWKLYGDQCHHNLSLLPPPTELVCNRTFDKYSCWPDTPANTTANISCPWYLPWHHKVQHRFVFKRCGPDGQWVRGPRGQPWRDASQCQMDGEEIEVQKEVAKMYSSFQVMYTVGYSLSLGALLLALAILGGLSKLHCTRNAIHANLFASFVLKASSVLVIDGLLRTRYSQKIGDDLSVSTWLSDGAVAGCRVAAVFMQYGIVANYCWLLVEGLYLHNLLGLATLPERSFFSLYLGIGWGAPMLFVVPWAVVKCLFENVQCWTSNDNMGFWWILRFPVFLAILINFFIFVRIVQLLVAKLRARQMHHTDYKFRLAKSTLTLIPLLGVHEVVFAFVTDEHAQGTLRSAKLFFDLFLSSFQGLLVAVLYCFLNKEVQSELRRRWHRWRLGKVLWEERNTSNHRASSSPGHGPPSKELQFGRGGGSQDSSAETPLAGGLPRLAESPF
Summary of the method: as §1

| Structure (SMILES) | pEC50 [1] | % Relative Potency Ratio [1] | pEC50 [2] |
| --- | --- | --- | --- |
| CC[C@H](C)[C@H](NC(=O)[C@H](CO)NC(=O)[C@H](CCC(=O)O)NC(=O)[C@@H](NC(=O)[C@](C)(Cc1ccccc1)NC(=O)[C@H](CC(=O)O)NC(=O)[C@H](CCC(N)=O)NC(=O)[C@H](C)NC(=O)[C@H](C)NC(=O)[C@H](CCCCNC(=O)COCCOCCNC(=O)COCCOCCNC(=O)CC[C@H](NC(=O)CC[C@H](NC(=O)CCCCCCCCCCCCCCCCCCC(=O)O)C(=O)O)C(=O)O)NC(=O)[C@H](CO)NC(=O)[C@H](CC(=O)O)NC(=O)[C@H](CC(C)C)NC(=O)[C@](C)(Cc1ccccc1)NC(=O)[C@H](CCCCN)NC(=O)[C@H](CO)NC(=O)[C@@H](NC(=O)[C@H](CC(=O)O)NC(=O)[C@H](CO)NC(=O)[C@@H](NC(=O)[C@](C)(Cc1ccccc1)NC(=O)[C@H](CO)NC(=O)CNC(=O)[C@H](Cc1c[nH]cn1)NC(=O)C(C)(C)NC(=O)[C@@H](N)Cc1c[nH]cn1)[C@@H](C)O)C(C)C)C(C)C)C(=O)N[C@@H](C)C(=O)N[C@@H](CC(N)=O)C(=O)N[C@H](C(N)=O)[C@@H](C)O [Peptide 22] (H-H[Aib]HGS[αMeF]TSDVSK[αMeF]LDSK([AEEA-AEEA-γGlu-γGlu-C20 diacid])AAQD[αMeF]VESIANT-NH2; N-terminus assumed) | 8.91 | 4.4 | 8.56 |
| CC[C@H](C)[C@H](NC(=O)[C@H](CO)NC(=O)[C@H](CCC(=O)O)NC(=O)[C@@H](NC(=O)[C@](C)(Cc1ccccc1)NC(=O)[C@H](CC(=O)O)NC(=O)[C@H](CCC(N)=O)NC(=O)[C@H](C)NC(=O)[C@H](C)NC(=O)[C@H](CCCCNC(=O)COCCOCCNC(=O)COCCOCCNC(=O)CC[C@H](NC(=O)CCCCCCCCCCCCCCCCC(=O)O)C(=O)O)NC(=O)[C@H](CO)NC(=O)[C@H](CC(=O)O)NC(=O)[C@H](CC(C)C)NC(=O)[C@](C)(Cc1ccccc1)NC(=O)[C@H](CCCCN)NC(=O)[C@H](CO)NC(=O)[C@@H](NC(=O)[C@H](CC(=O)O)NC(=O)[C@H](CO)NC(=O)[C@@H](NC(=O)[C@](C)(Cc1ccccc1)NC(=O)[C@H](CO)NC(=O)CNC(=O)[C@H](Cc1c[nH]cn1)NC(=O)C(C)(C)NC(=O)[C@@H](N)Cc1c[nH]cn1)[C@@H](C)O)C(C)C)C(C)C)C(=O)N[C@@H](C)C(=O)N[C@@H](CC(N)=O)C(=O)N[C@H](C(N)=O)[C@@H](C)O [Peptide 23] (H-H[Aib]HGS[αMeF]TSDVSK[αMeF]LDSK([AEEA-AEEA-γGlu-C18 diacid])AAQD[αMeF]VESIANT-NH2; N-terminus assumed) | 9.57 | 2.4 | 9.49 |
| CC[C@H](C)[C@H](NC(=O)C(C)(C)NC(=O)[C@H](CCC(N)=O)NC(=O)[C@@H](NC(=O)[C@](C)(Cc1ccccc1)NC(=O)[C@H](CC(=O)O)NC(=O)[C@H](CCC(N)=O)NC(=O)[C@H](C)NC(=O)[C@H](C)NC(=O)[C@H](CCCCNC(=O)COCCOCCNC(=O)COCCOCCNC(=O)CC[C@H](NC(=O)CC[C@H](NC(=O)CCCCCCCCCCCCCCCCCCC(=O)O)C(=O)O)C(=O)O)NC(=O)[C@H](CO)NC(=O)[C@H](CC(=O)O)NC(=O)[C@H](CC(C)C)NC(=O)[C@](C)(Cc1ccccc1)NC(=O)[C@H](CCCCN)NC(=O)[C@H](CO)NC(=O)[C@@H](NC(=O)[C@H](CC(=O)O)NC(=O)[C@H](CO)NC(=O)[C@@H](NC(=O)[C@](C)(Cc1ccccc1)NC(=O)[C@H](CO)NC(=O)CNC(=O)[C@H](Cc1c[nH]cn1)NC(=O)C(C)(C)NC(=O)[C@@H](N)Cc1c[nH]cn1)[C@@H](C)O)C(C)C)C(C)C)C(=O)N[C@@H](C)C(=O)N[C@@H](CC(N)=O)C(=O)N[C@H](C(N)=O)[C@@H](C)O [Peptide 25] (H-H[Aib]HGS[αMeF]TSDVSK[αMeF]LDSK([AEEA-AEEA-γGlu-γGlu-C20 diacid])AAQD[αMeF]VQ[Aib]IANT-NH2) | 9.14 | 3.6 | 8.88 |
| CC(C)C[C@H](NC(=O)[C@H](Cc1c[nH]c2ccccc12)NC(=O)[C@H](CCCNC(=N)N)NC(=O)[C@@H](NC(=O)[C@H](Cc1ccccc1)NC(=O)[C@H](CC(=O)O)NC(=O)[C@H](CCC(N)=O)NC(=O)[C@H](C)NC(=O)[C@H](CCCNC(=N)N)NC(=O)[C@H](CCCCNC(=O)COCCOCCNC(=O)COCCOCCNC(=O)CC[C@H](NC(=O)CCCCCCCCCCCCCCCCC(=O)O)C(=O)O)NC(=O)[C@H](CO)NC(=O)[C@H](CC(=O)O)NC(=O)[C@H](CC(C)C)NC(=O)[C@](C)(Cc1ccccc1)NC(=O)[C@H](CCCCN)NC(=O)[C@H](CO)NC(=O)[C@@H](NC(=O)[C@H](CC(=O)O)NC(=O)[C@H](CO)NC(=O)[C@@H](NC(=O)[C@H](Cc1ccccc1)NC(=O)[C@@H](NC(=O)CNC(=O)[C@H](CCC(N)=O)NC(=O)C(C)(C)NC(=O)[C@@H](N)Cc1c[nH]cn1)[C@@H](C)O)[C@@H](C)O)C(C)C)C(C)C)C(=O)N[C@@H](CC(C)C)C(=O)NC(C)(C)C(=O)N[C@H](C(=O)O)[C@@H](C)O [Peptide 28] (H-H[Aib]QGTFTSDVSK[αMeF]LDSK([AEEA-AEEA-γGlu-C18 diacid])RAQDFVRWLL[Aib]T-OH) | 9.89 | 4.0 | 9.59 |
| CC(C)C[C@H](NC(=O)[C@H](Cc1c[nH]c2ccccc12)NC(=O)[C@H](CCC(N)=O)NC(=O)[C@@H](NC(=O)[C@H](Cc1ccccc1)NC(=O)[C@H](CC(=O)O)NC(=O)C(C)(C)NC(=O)[C@H](C)NC(=O)[C@H](CCCNC(=N)N)NC(=O)[C@H](CCCCNC(=O)COCCOCCNC(=O)COCCOCCNC(=O)CC[C@H](NC(=O)CCCCCCCCCCCCCCCCC(=O)O)C(=O)O)NC(=O)[C@H](CO)NC(=O)[C@H](CC(=O)O)NC(=O)[C@H](CC(C)C)NC(=O)[C@](C)(Cc1ccccc1)NC(=O)[C@H](CCCCN)NC(=O)[C@H](CO)NC(=O)[C@@H](NC(=O)[C@H](CC(=O)O)NC(=O)[C@H](CO)NC(=O)[C@@H](NC(=O)[C@H](Cc1ccccc1)NC(=O)[C@@H](NC(=O)CNC(=O)[C@H](CCC(N)=O)NC(=O)C(C)(C)NC(=O)[C@@H](N)Cc1c[nH]cn1)[C@@H](C)O)[C@@H](C)O)C(C)C)C(C)C)C(=O)N[C@@H](CC(C)C)C(=O)NC(C)(C)C(=O)N[C@H](C(=O)O)[C@@H](C)O [Peptide 29] (H-H[Aib]QGTFTSDVSK[αMeF]LDSK([AEEA-AEEA-γGlu-C18 diacid])RA[Aib]DFVQWLL[Aib]T-OH; N-terminus assumed) | 9.97 | 11.7 | 9.20 |

The next compounds have a higher pEC50 [1] than those just listed; values first:

| pEC50 [1] | % Relative Potency Ratio [1] | pEC50 [2] | Structure (SMILES) |
| --- | --- | --- | --- |
| 10.08 | 2.4 | 10.00 | CC[C@H](C)[C@H](NC(=O)C(C)(C)NC(=O)[C@H](CCC(N)=O)NC(=O)[C@@H](NC(=O)[C@](C)(Cc1ccccc1)NC(=O)[C@H](CC(=O)O)NC(=O)[C@H](CCC(N)=O)NC(=O)[C@H](C)NC(=O)[C@H](C)NC(=O)[C@H](CCCCNC(=O)COCCOCCNC(=O)COCCOCCNC(=O)CC[C@H](NC(=O)CCCCCCCCCCCCCCCCC(=O)O)C(=O)O)NC(=O)[C@H](CO)NC(=O)[C@H](CC(=O)O)NC(=O)[C@H](CC(C)C)NC(=O)[C@](C)(Cc1ccccc1)NC(=O)[C@H](CCCCN)NC(=O)[C@H](CO)NC(=O)[C@@H](NC(=O)[C@H](CC(=O)O)NC(=O)[C@H](CO)NC(=O)[C@@H](NC(=O)[C@](C)(Cc1ccccc1)NC(=O)[C@H](CO)NC(=O)CNC(=O)[C@H](Cc1c[nH]cn1)NC(=O)C(C)(C)NC(=O)[C@@H](N)Cc1c[nH]cn1)[C@@H](C)O)C(C)C)C(C)C)C(=O)N[C@@H](C)C(=O)N[C@@H](CC(N)=O)C(=O)N[C@H](C(N)=O)[C@@H](C)O [Peptide 24] (H-H[Aib]HGS[αMeF]TSDVSK[αMeF]LDSK([AEEA-AEEA-γGlu-C18 diacid])AAQD[αMeF]VQ[Aib]IANT-NH2; N-terminus assumed) |
| 10.09 | 218.5 | 8.05 | CC[C@H](C)[C@H](NC(=O)[C@H](Cc1c[nH]c2ccccc12)NC(=O)[C@H](CCC(N)=O)NC(=O)[C@@H](NC(=O)[C@](C)(Cc1ccccc1)NC(=O)[C@H](CC(=O)O)NC(=O)[C@H](CCC(N)=O)NC(=O)[C@H](C)NC(=O)[C@H](C)NC(=O)[C@H](CCCCNC(=O)COCCOCCNC(=O)COCCOCCNC(=O)CC[C@H](NC(=O)CCCCCCCCCCCCCCCCC(=O)O)C(=O)O)NC(=O)[C@H](CO)NC(=O)[C@H](CC(=O)O)NC(=O)[C@H](CC(C)C)NC(=O)[C@](C)(Cc1ccccc1)NC(=O)[C@H](CCCCN)NC(=O)[C@H](CO)NC(=O)[C@@H](NC(=O)[C@H](CC(=O)O)NC(=O)[C@H](CO)NC(=O)[C@@H](NC(=O)[C@](C)(Cc1ccccc1)NC(=O)[C@H](CO)NC(=O)CNC(=O)[C@H](CCC(N)=O)NC(=O)C(C)(C)NC(=O)[C@@H](N)Cc1c[nH]cn1)[C@@H](C)O)C(C)C)C(C)C)C(=O)N[C@@H](C)C(=O)N[C@@H](CC(N)=O)C(N)=O [Peptide 26] (H-H[Aib]QGS[αMeF]TSDVSK[αMeF]LDSK([AEEA-AEEA-γGlu-C18 diacid])AAQD[αMeF]VQWIAN-NH2) |
| 10.74 | 156.4 | 8.84 | CC[C@H](C)[C@H](NC(=O)[C@H](Cc1c[nH]c2ccccc12)NC(=O)[C@H](CCC(=O)O)NC(=O)[C@@H](NC(=O)[C@](C)(Cc1ccccc1)NC(=O)[C@H](CC(=O)O)NC(=O)[C@H](CCC(N)=O)NC(=O)[C@H](C)NC(=O)[C@H](C)NC(=O)[C@H](CCCCNC(=O)COCCOCCNC(=O)COCCOCCNC(=O)CC[C@H](NC(=O)CCCCCCCCCCCCCCCCC(=O)O)C(=O)O)NC(=O)[C@H](CO)NC(=O)[C@H](CC(=O)O)NC(=O)[C@H](CC(C)C)NC(=O)[C@](C)(Cc1ccccc1)NC(=O)[C@H](CCCCN)NC(=O)[C@H](CO)NC(=O)[C@@H](NC(=O)[C@H](CC(=O)O)NC(=O)[C@H](CO)NC(=O)[C@@H](NC(=O)[C@](C)(Cc1ccccc1)NC(=O)[C@H](CO)NC(=O)CNC(=O)[C@H](CCC(N)=O)NC(=O)C(C)(C)NC(=O)[C@@H](N)Cc1c[nH]cn1)[C@@H](C)O)C(C)C)C(C)C)C(=O)N[C@@H](C)C(=O)N[C@@H](CC(N)=O)C(N)=O [Peptide 27] (H-H[Aib]QGS[αMeF]TSDVSK[αMeF]LDSK([AEEA-AEEA-γGlu-C18 diacid])AAQD[αMeF]VEWIAN-NH2; N-terminus assumed) |
